According to patent US10858305B2, “Perillyl alcohol-3-bromopyruvate conjugate and methods of treating cancer” (NeOnc Technologies, Inc., priority 2016, dated 2020):
“Also recorded” adds a separate entry of the source.

How the values were obtained:
Format in all cases: cell-based, human
[1] = tested on: MDA-MB-231 breast cancer cells; experiment: LDH release assay in MDA-MB-231 / breast cancer cell lines
Procedure: (§1) (A) MTT assay was performed after 24 hours. […] (B) LDH assay was performed after […]. LDH release by untreated cells was set to 1. Relative fold increase is shown (n=3).
(§2) (A) MTT assay was performed after 24 hours. Viability of untreated cells was set at 100% (data points are averages of 2 experiments). (B) LDH assay was performed after 24 hours. LDH release by untreated cells was set to 1. Relative fold increase is shown (averages from 2 experiments). (C) Representative photos show typical colony formation after initial 48 hours of drug treatment. In all cases of combination treatment with 3-BP mixed with […] (3-BP+POH), the indicated concentrations refer to each individual drugs, i.e., 100 μM 3-BP+POH means that 100 μM 3-BP was combined with 100 μM POH.
The capacity for rapid cell killing by NEO218 relative to 3-BP, POH and 3-BP+POH was evaluated via LDH assay, where LDH release is used as a proxy for cell death.
In FIG. 4, Panels (a) and (b), show the results of treating breast cancer cell lines with increasing concentrations of NEO218, 3-BP, or 3-BP mixed with POH. […] In all cases a-d, the release of LDH (as a marker of cell death) was measured after 24 hours.
Depending on the cell line, 2000 to 4000 cells per well were seeded in a volume of 50 μL into a 96-well plate. The next day, drugs ere added in an additional 50 μL of medium. At different time points (usually after 24 hours of incubation), 50 μL medium was removed and processed with the LDH Cytotoxicity Assay Kit (Thermo Fisher Scientific, Waltham, Mass.) according to the manufacturer's instructions. This kit measures extracellular LDH in culture medium using an enzymatic reaction that results in a red formazan product, which can be measured spectrophotometrically. The absorbance was measured at 490 and 680 nm. All LDH levels were normalized to untreated controls and presented as fold change of the controls.

[2] = tested on: HCT116 colon cancer cells; experiment: Cellular ATP content assay; settings: HCT116; 3 hours (FIG. 9) or 3 and 6 hours at 40 μM (FIG. 22)
Procedure: HCT116 cells were treated with 40 μM 3-BP or NEO218. As a point of reference, cells were also exposed to 100 nM rotenone in glucose-free medium. ATP levels were determined after 3 and 6 hours. ATP levels in untreated cells were set at 100% (corresponding to 26.6 nmol per one million cells).
HCT116 colon cancer cells were treated cells with: NEO218, 3-BP; rotenone (a mitochondrial poison that blocks the respiratory chain); medium without glucose (“no gluc”; in order to shut down glycolysis); and, rotenone in combination with absent glucose (to cease all intracellular ATP production). After 3 hours of treatment, a commercially available ATP detection assay kit was employed to determine the relative levels of ATP present.
ATP content of cells was measured with the ATP Colorimetric/Fluorometric Assay kit (Biovision Inc., Milpitas, Calif.), which utilizes the phosphorylation of glycerol to generate a product that is quantified by colorimetry at 570 nm. Approximately 1×10^6 cells were cultured in 10-cm tissue culture plates, exposed to drug treatment for various time periods, and then processed as per manufacturer's instructions. All ATP levels were normalized to untreated controls and presented as percentage of controls.

HCT116 cells [3] = experiment: MTT assay with or without supplemental pyruvate; settings: HCT116, MTT after 24 hours
Procedure: (A) HCT116 cells were treated with 40 μM 3-BP or NEO218 in the presence or absence of 1 mM NAC, 1 mM GSH, or 50 mM methyl-pyruvate (or sodium pyruvate, which produced similar outcomes). Cell viability was determined 24 hours later by MTT assay. (B) HCT116 cells were treated with 30 or 100 μM 3-BP or NEO218. After 30 minutes, cell lysates were prepared and analyzed for GAPDH activity. (C) Lysates from non-drug-treated MDA-MB-231 cells were mixed with 3-BP or NEO218 in the presence or absence of NAC or GSH at the concentrations mentioned in A. After 1 hour of incubation, GAPDH activity was determined. GAPDH activity in the absence of drug treatment was set at 100% (corresponding to 0.06 units/min×10^6 cells).
To test this hypothesis, HCT116 cells were treated with increasing concentrations of NEO218 and 3-BP (individually) in the presence or absence of 10 mM pyruvate. Viability of cells was determined 24 hours later by MTT cell viability assay.

HCT116 cells [4] = experiment: Colony formation assay in HCT116 cells; settings: for IC50: Homo sapiens, HCT-116, HCT116, 48 hours drug then 10-14 days, read-out: half-maximal effect, CFA
Procedure: as §1
Depending on the cell line (and plating efficiency), 250-800 cells were seeded into each well of a 6-well plate and treated as described in detail previously. After 12-16 days, colonies (defined as groups of >50 cells) were visualized by staining for 4 hours with 1% methylene blue (in methanol), and then were-counted. Experiments were repeated at least once, but usually more often under different conditions.

MDA-MB-231 cells = experiment: MTT short-term toxicity assay in MDA-MB-231 cells
Procedure: as §1, §2
Methylthiazoletetrazolium (MTT) assays were performed as described earlier.

[5] = tested on: HCT116 3-BP survivors (MCT-1-negative) and parental cells; experiment: Selection of 3-BP survivors from HCT116 cells and MTT chemosensitivity
Procedure: (A) Immunostaining of HCT116 cells in the absence of any drug treatment (parental cells; left panel) and after 2-week recovery from highly toxic 48-hour treatment with 40 μM 3-BP (3-BP survivors; right panel). Arrows point to a few apparently MCT-1-negative cells among the otherwise MCT-1-positive parental population. Note preferential staining of the cell membrane in the positive cells, consistent with the known transmembrane location of MCT-1; no such staining could be detected in the 3-BP survivors. (B) Western blot analysis of MCT-1 expression levels two weeks after 48-hour treatment of cells with increasing concentrations of 3-BP. […] GAPDH was used as a loading control. (C) Chemosensitivity of 3-BP survivors were compared to parental cells in MTT assays. Both populations were treated with increasing concentrations of 3-BP or NEO218. Survival of untreated cells was set at 100% (n≥3±SE).
Upon closer inspection of individual cells by immunohistochemistry, we detected a small number of apparently MCT-1-negative cells among the otherwise mostly MCT-1-positive population (FIG. 20A). This aspect was investigated further by treating HCT116 cells with 40 μM, representing a concentration that reduces apparent viability by 75% in MTT assays (FIG. 17A) and blocks colony formation by 99% in CFAs. […] These cells, which we called 3-BP survivors, were further analyzed. Intriguingly, no MCT-1 expression could be detected in these cells, neither by immunohistochemistry (FIG. 20A) nor by Western blot (FIG. 20B). […] Intriguingly, NEO218 had no such effect.

With `O=C(O)C(=O)CBr` [3-BP, 3-bromopyruvate] the EC50 ([1]; Homo sapiens, MDA-MB-231, 16 hours, read-out: effective concentration (half-maximal), LDH assay) was ~350 µM, the “depletion of cellular ATP pools” value [2] was “nearly identical outcomes; also recorded: potently depletes the levels of cellular ATP pools” and the “effect of supplemental pyruvate on drug-induced cell death” value (HCT116 cells [3]) was “profound protection; also recorded: excess pyruvate was able to completely prevent cell death”. The “block of colony formation in CFA” value (HCT116 cells [4]; HCT116, 40 μM) was 99%, the IC50 (HCT116 cells [4]) was ~3000 nM and the IC50 (MDA-MB-231 cells; Homo sapiens, MDA-MB-231, 24 hours, read-out: effective concentration (half-maximal), MTT assay) was ~220 µM. The IC50 ([5]; Homo sapiens, HCT-116, read-out: IC50 (MTT)) was > 100 µM.

`C=C(C)[C@@H]1CC=C(COC(=O)C(=O)CBr)CC1` [NEO218, 3-bromo-2-oxo-propionic acid 4-isopropenyl-cyclohex-1-enylmethyl ester] was tested, and the “earliest detection of cytotoxic effects (LDH release) after onset of drug treatment” value ([1]; MDA-MB-231, time course) was 1 h, the “time at which half-maximal extent of cell death is reached” value ([1]; MDA-MB-231, time course of LDH release) was < 8 h and the “depletion of cellular ATP pools” value [2] was “nearly identical outcomes; also recorded: potently depletes the levels of cellular ATP pools”. For the same compound, the “effect of supplemental pyruvate on drug-induced cell death” value (HCT116 cells [3]) was “no protection at all when pyruvate was added; also recorded: pyruvate had no effect on viability at all”, the IC50 (HCT116 cells [4]) was ~3000 nM and the “potency in MDA-MB-231 compared with HCT116 / with 3-BP alone” value (MDA-MB-231 cells; MTT, LDH and CFA assays) was “maintained the same high potency”. The “sensitivity of 3-BP survivors” value ([5]; 3-BP survivors of HCT116, MTT) was “retained their high sensitivity toward NEO218” and the “surviving cells after treatment” value ([5]; parental HCT116, 40 μM) was “did not leave any surviving cells”.
